Experimental data reported in patent US6903133B2, “Anticancer compounds” (Plantaceutica, Inc., priority 2002, dated 2005).

tested on: KB cells; assay: cytotoxicity against KB cells (sulforhodamine B assay); format: cell-based; details: KB cells (nasopharyngeal carcinoma cells); result in words only
Method: Podophyllotoxin derivatives of this invention can be preliminarily screened for their efficacy in treating cancer by in vitro assays. For example, podophyllotoxin derivatives can be tested for their cytotoxicity against KB cells (nasopharyngeal carcinoma). More specifically, a test compound can be added to a culture of KB cells and its IC50 (i.e., the concentration of the test compound which achieves a half-maximal inhibition of cell growth) is determined using the sulforhodamine B (a protein binding dye) assay as described in J.N.C.I. (1990) 82: 1107. The podophyllotoxin derivatives of this invention are also tested for their abilitives to inhibit DNA topoisomerase II in vitro as described in Cho et al. (1996 J. Med. Chem. 39: 1396) and to stimulate protein-linked DNA breaks (PLDB) in KB cells as described in Rowe et al. (1986 Cancer Res. 46:2021). DNA topoisomerase II is a well known target for cancer treatment drugs. See, e.g., MacDonald et al. (1991) DNA Topoisomerase in Cancer; Oxford University Press: New York.
A number of compounds of this invention were evaluated for cytotoxicity against KB cells, which are nasopharyngeal carcinoma cells. They were also tested for stimulation of cellular protein-linked DNA breaks (PLDB) using etoposide as a positive control. Etopside is a widely-used antineoplastic agent, see, e.g., Zhang et al. (1994) J. Med. Chem. 37: 446.

| SMILES | IC50 values against KB cells |
| --- | --- |
| COc1cc([C@@H]2c3cc4c(cc3[C@@H](Nc3nc(COC(C)=O)cs3)[C@@H]3COC(=O)[C@H]23)OCO4)cc(OC)c1O [Compound 36, 4′-O-demethyl-4β-[4″-(methyl-O-acetyl)-2″-thiazolylamino]-4-desoxypodophyllotoxin] | unexpectedly low |
| CCOC(=O)c1ccc(N[C@@H]2c3cc4c(cc3[C@@H](c3cc(OC)c(O)c(OC)c3)[C@H]3C(=O)OC[C@H]32)OCO4)nc1 [Compound 39] | unexpectedly low |
| CCOC(=O)c1sc(N[C@@H]2c3cc4c(cc3[C@@H](c3cc(OC)c(O)c(OC)c3)[C@H]3C(=O)OC[C@H]32)OCO4)nc1C [Compound 45, 4′-O-demethyl-4β-(5″-ethoxycarbonyl-4″-methyl-2″-thiazolylamino)-4-desoxypodophyllotoxin] | unexpectedly low |
| COc1cc([C@@H]2c3cc4c(cc3[C@@H](Nc3ncc([N+](=O)[O-])s3)[C@@H]3COC(=O)[C@H]23)OCO4)cc(OC)c1O [Compound 49, 4′-O-demethyl-4β-(5″-nitro-2″-thiazolylamino)-4-desoxypodophyllotoxin] | unexpectedly low |
